The text below walks through data of patent publication US11299485B2, “Thiophene derivative and use thereof” (FUJIMOTO CO., LTD., priority 2018, dated 2022).

Type in all cases: cell-based
One data set deals with Kasumi-7 cells. The data set is described as follows: Human acute lymphoblastic leukemia cell line Kasumi-7 proliferation suppression test. To be noted: 72 h, compound 10 μM, 3 days, WST-8, read-out: cell survival rate (% of control) Kasumi-7. In outline:
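Cells seeded at 1.3×10^5 cells/mL in RPMI1640 with 20% FCS, cultured overnight at 37°C, 5% CO2, then treated with compound at 10 μM final; DMSO vehicle control. Proliferation read by WST-8 after 3 days' culture.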
A general note: Tetrazolium assays rely on reduction of a dye to a coloured formazan, in cell work by metabolically active cells.

The subject of data set [1] is human peripheral blood mononuclear cells (PBMC). The data set can be described thus: Cytotoxicity test using human peripheral blood mononuclear cells (PBMC). To be noted: compound 10 μg/mL, LPS, 24 hr, WST-1 or WST-8. On the procedure:
Example 56: Cytotoxicity Test Using Human Peripheral Blood Mononuclear Cells (PBMC)
Peripheral blood of a healthy adult was collected in a Venoject II vacuum blood collection tube (Terumo, containing EDTA/2Na), and then diluted two-fold with an equal volume of OTSUKA NORMAL SALINE (Otsuka Pharmaceutical Co., Ltd.). The diluted blood was mixed with Lymphoprep (AXIS-SHIELD) in half the volume of the diluted blood, dispensed into a 15 mL conical tube, and centrifuged at room temperature for 20 min (2,100 rpm). The mononuclear cells accumulated at the interface between Lymphoprep and plasma was transferred to a 50 mL conical tube, diluted with OTSUKA NORMAL SALINE, and the mononuclear cells suspension was centrifuged at room temperature for 10 min (1,150 rpm) and then the supernatant was removed. The mononuclear cells fraction obtained as a precipitate was suspended in an appropriate amount of medium A, and diluted as appropriate with 0.4% trypan blue solution (Sigma-Aldrich Co. LLC.). The number of viable cells was counted with a hemocytometer (ERMA INC.). It was diluted with medium A such that the value obtained was 5×10^5 cells/mL. On the other hand, 37.5 μL of medium A, 2.5 μL of 0.4 mg/mL test compound solution (DMSO solution 10-fold diluted with medium A), and 10 μL of 10 μg/mL lipopolysaccharide (Sigma-Aldrich Co. LLC.) solution (diluted with medium A) were each added in advance to the same well of a Falcon 96-well flat bottom plate (Corning Incorporated), and the above-mentioned cell suspension was dispensed at 50 μL/well (final concentration of test compound 10 μg/mL). 2.5 μL of DMSO diluted 10-fold with medium A was added to the control well instead of the compound solution. After culturing at 37° C. in a 5% CO2 stream for 24 hr, the cell survival rate was measured using WST-1 (DOJINDO LABORATORIES) or WST-8 kit (KISHIDA CHEMICAL Co., Ltd.) and according to each instruction manual attached thereto.

The next data set deals with Daudi cells. The data set is described as follows: Human Burkitt lymphoma cell line Daudi proliferation suppression test. To be noted: 72 h, compound 10 μM, 3 days, WST-8, read-out: cell survival rate (% of control) Daudi. In outline:
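Daudi cells plated at 1.3×10^5 cells/mL and cultured overnight at 37° C., 5% CO2, then given test compound at final 10 μM (DMSO vehicle control). After 3 days' culture, proliferation was read by WST-8.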

On to `Cl.O=C1CCC(n2cc(-c3cscc3OCc3ccc(CN4CCCCC4)cc3)nn2)C(=O)N1` (stereo not drawn) [compound 42, 3-(4-{4-[4-(piperidin-1-ylmethyl)benzyloxy]thiophen-3-yl}-1H-1,2,3-triazol-1-yl)piperidine-2,6-dione hydrochloride], for which the viability at 10 µM is 26% in the data set on Kasumi-7 cells and 17% in the data set with Daudi cells. The “cell survival rate (% of control) PBMC” value in data set [1] was 103 % of control.
As to `COc1c(-c2cn(C3CCC(=O)NC3=O)nn2)csc1Cl` (stereo not drawn) [compound 22, 3-[4-(5-chloro-4-methoxythiophen-3-yl)-1H-1,2,3-triazol-1-yl]piperidine-2,6-dione], the viability at 10 µM with Kasumi-7 cells was 82%; in the data set on Daudi cells it was 81%. Also, the “cell survival rate (% of control) PBMC” value in data set [1] is given as 132 % of control.
Turning to `COc1sccc1-c1cn(C2CCC(=O)NC2=O)nn1` (stereo not drawn) [compound 18, 3-[4-(2-methoxythiophen-3-yl)-1H-1,2,3-triazol-1-yl]piperidine-2,6-dione], the viability at 10 µM in the data set with Kasumi-7 cells worked out at 52%; with Daudi cells it was 51%. Further, the “cell survival rate (% of control) PBMC” value in data set [1] was 53 % of control.
Turning to `O=C1CCC(n2cc(-c3csc(CO)c3)nn2)C(=O)N1` (stereo not drawn) [compound 9, 3-{4-[5-(hydroxymethyl)thiophen-3-yl]-1H-1,2,3-triazol-1-yl}piperidine-2,6-dione], the viability at 10 µM with Kasumi-7 cells came to 90%; in the data set with Daudi cells it was 83%. Also, the “cell survival rate (% of control) PBMC” value in data set [1] is 129 % of control.
Turning to `CC(=O)c1ccc(-c2cn(C3CCC(=O)NC3=O)nn2)s1` (stereo not drawn) [compound 8, 3-[4-(5-acetylthiophen-2-yl)-1H-1,2,3-triazol-1-yl]piperidine-2,6-dione], the viability at 10 µM is 94% with Kasumi-7 cells and 93% with Daudi cells. The “cell survival rate (% of control) PBMC” value in data set [1] was 97 % of control.
In the case of `O=C1CCC(n2cc(-c3cscc3OCC3CCCC3)nn2)C(=O)N1` (stereo not drawn) [compound 29, 3-{4-[4-(cyclopentylmethoxy)thiophen-3-yl]-1H-1,2,3-triazol-1-yl}piperidine-2,6-dione], the viability at 10 µM came out at 84% with Kasumi-7 cells and 79% in the data set on Daudi cells. In addition, the “cell survival rate (% of control) PBMC” value in data set [1] was 104 % of control.
The corresponding values for `O=C1CCC(n2cc(-c3cc(Br)sc3Br)nn2)C(=O)N1` (stereo not drawn) [compound 13, 3-[4-(2,5-dibromothiophen-3-yl)-1H-1,2,3-triazol-1-yl]piperidine-2,6-dione] are 93%, 95% and 132 % of control.
The corresponding values for `O=C1CCC(n2cc(-c3cscc3Br)nn2)C(=O)N1` (stereo not drawn) [compound 1, 3-[4-(4-bromothiophen-3-yl)-1H-1,2,3-triazol-1-yl]piperidine-2,6-dione] are 65%, 61% and 106 % of control.
As to `O=C1CCC(n2cc(-c3cscc3OCc3cccc(CN4CCOCC4)c3)nn2)C(=O)N1` (stereo not drawn) [compound 39, 3-(4-{4-[3-(morpholinomethyl)benzyloxy]thiophen-3-yl}-1H-1,2,3-triazol-1-yl)piperidine-2,6-dione], the values for the viability at 10 µM in the data set with Kasumi-7 cells and with Daudi cells were 36% and 30%, respectively. In addition, the “cell survival rate (% of control) PBMC” value in data set [1] is 98 % of control.
As for `COc1cscc1-c1nnn(C2CCC(=O)NC2=O)c1I` (stereo not drawn) [compound 49, 3-[5-iodo-4-(4-methoxythiophen-3-yl)-1H-1,2,3-triazol-1-yl]piperidine-2,6-dione], the viability at 10 µM in the data set with Kasumi-7 cells came to 56%; in the data set on Daudi cells it was 42%. For the same molecule, the “cell survival rate (% of control) PBMC” value in data set [1] is 102 % of control.
Taken in the same sequence, the figures for `O=C1CCC(n2cc(-c3ccsc3)nn2)C(=O)N1` (stereo not drawn) [compound 2, 3-[4-(thiophen-3-yl)-1H-1,2,3-triazol-1-yl]piperidine-2,6-dione] were 68%, 71% and 100 % of control.
